Source: ChEMBL document CHEMBL1629706 (Antimicrob Agents Chemother, 2010)

What was measured:
Plasmodium falciparum [1] = experiment: Antimalarial activity against Plasmodium falciparum; type: functional, organism-based
Plasmodium falciparum [2] = experiment: microbe, parasite or virus in culture; settings: isolate 9067
Description: Antimalarial activity against Plasmodium falciparum isolate 9067

Plasmodium falciparum [3] = experiment: Antimalarial activity against Plasmodium falciparum harboring pfmdr1-86 mutant gene with 2 DNNND repeat; type: functional, organism-based
Plasmodium falciparum [4] = experiment: microbe, parasite or virus in culture; settings: 3D7
Description: Antimalarial activity against Plasmodium falciparum 3D7

Plasmodium falciparum [5] = experiment: microbe, parasite or virus in culture
Description: Antimalarial activity against Plasmodium falciparum harboring pfmdr1 gene

Plasmodium falciparum [6] = experiment: microbe, parasite or virus in culture; settings: isolate AK033 D-0
Description: Antimalarial activity against Plasmodium falciparum isolate AK033 D-0

Plasmodium falciparum [7] = experiment: microbe, parasite or virus in culture; remark: listed apart in the source
Description: Antimalarial activity against Plasmodium falciparum harboring pfmdr1 gene with 2 DNNND repeat

Plasmodium falciparum [8] = experiment: microbe, parasite or virus in culture; settings: isolate 8966
Description: Antimalarial activity against Plasmodium falciparum isolate 8966

Plasmodium falciparum [9] = experiment: microbe, parasite or virus in culture; settings: isolate 9070
Description: Antimalarial activity against Plasmodium falciparum isolate 9070

Plasmodium falciparum [10] = experiment: microbe, parasite or virus in culture; settings: isolate AK158
Description: Antimalarial activity against Plasmodium falciparum isolate AK158

Plasmodium falciparum [11] = experiment: microbe, parasite or virus in culture; settings: isolate 8968
Description: Antimalarial activity against Plasmodium falciparum isolate 8968

Plasmodium falciparum [12] = experiment: Antimalarial activity against Plasmodium falciparum harboring pfcrt-76 mutant gene with 2 DNNND repeat; type: functional, organism-based
Plasmodium falciparum [13] = experiment: microbe, parasite or virus in culture; settings: isolate AK152 D-56
Description: Antimalarial activity against Plasmodium falciparum isolate AK152 D-56

Plasmodium falciparum [14] = experiment: microbe, parasite or virus in culture; settings: isolate AK183
Description: Antimalarial activity against Plasmodium falciparum isolate AK183

Plasmodium falciparum [15] = experiment: microbe, parasite or virus in culture; settings: isolate AK062
Description: Antimalarial activity against Plasmodium falciparum isolate AK062

Plasmodium falciparum [16] = experiment: microbe, parasite or virus in culture; settings: isolate AK167
Description: Antimalarial activity against Plasmodium falciparum isolate AK167

Plasmodium falciparum [17] = experiment: Antimalarial activity against Plasmodium falciparum harboring pfmdr1-86 mutant gene; type: functional, organism-based
Plasmodium falciparum [18] = experiment: microbe, parasite or virus in culture; settings: isolate AK150 D-42
Description: Antimalarial activity against Plasmodium falciparum isolate AK150 D-42

Plasmodium falciparum [19] = experiment: microbe, parasite or virus in culture; settings: isolate AK022 D-28
Description: Antimalarial activity against Plasmodium falciparum isolate AK022 D-28

Plasmodium falciparum [20] = experiment: Antimalarial activity against Plasmodium falciparum harboring pfcrt-76 mutant gene; type: functional, organism-based
Plasmodium falciparum [21] = experiment: microbe, parasite or virus in culture; settings: isolate 8885
Description: Antimalarial activity against Plasmodium falciparum isolate 8885

Plasmodium falciparum [22] = experiment: microbe, parasite or virus in culture; settings: isolate AK033 D-49
Description: Antimalarial activity against Plasmodium falciparum isolate AK033 D-49

Plasmodium falciparum [23] = experiment: microbe, parasite or virus in culture; settings: isolate AK249
Description: Antimalarial activity against Plasmodium falciparum isolate AK249

Plasmodium falciparum [24] = experiment: microbe, parasite or virus in culture; remark: listed apart in the source
Description: Antimalarial activity against Plasmodium falciparum harboring 2 DNNND repeat

Plasmodium falciparum [25] = experiment: microbe, parasite or virus in culture; settings: isolate AK222
Description: Antimalarial activity against Plasmodium falciparum isolate AK222

Plasmodium falciparum [26] = experiment: microbe, parasite or virus in culture; settings: isolate AK022D-0
Description: Antimalarial activity against Plasmodium falciparum isolate AK022D-0

Plasmodium falciparum [27] = experiment: microbe, parasite or virus in culture; settings: isolate CDA-1553
Description: Antimalarial activity against Plasmodium falciparum isolate CDA-1553

Plasmodium falciparum [28] = experiment: Antimalarial activity against Plasmodium falciparum harboring 1 DNNND repeat; type: functional, organism-based
Plasmodium falciparum [29] = experiment: microbe, parasite or virus in culture; settings: isolate 8973
Description: Antimalarial activity against Plasmodium falciparum isolate 8973

Plasmodium falciparum [30] = experiment: Antimalarial activity against Plasmodium falciparum harboring 3 DNNND repeat; type: functional, organism-based

CCCCN(CCCC)CC(O)c1cc(Cl)cc2c1-c1ccc(Cl)cc1/C2=C/c1ccc(Cl)cc1 (stereo not drawn) [LUMEFANTRINE]
IC50 (Plasmodium falciparum [1]): 56 nM

Clc1ccc2c(N3CCN(CCCN4CCN(c5ccnc6cc(Cl)ccc56)CC4)CC3)ccnc2c1 [PIPERAQUINE]
IC50 (Plasmodium falciparum [1]): 56 nM

C=C[C@H]1CN2CC[C@H]1C[C@H]2[C@H](O)c1ccnc2ccc(OC)cc12 [QUININE]
IC50 (Plasmodium falciparum [2]): 80.1 nM
IC50 (Plasmodium falciparum [3]): 249 nM
IC50 (Plasmodium falciparum [4]): 27.1 nM
IC50 (Plasmodium falciparum [5]): 74 nM
IC50 (Plasmodium falciparum [6]): 32.8 nM
IC50 (Plasmodium falciparum [7]): 92 nM
IC50 (Plasmodium falciparum [8]): 55.8 nM
IC50 (Plasmodium falciparum [9]): 41.5 nM
IC50 (Plasmodium falciparum [10]): 234 nM
IC50 (Plasmodium falciparum [11]): 30.6 nM
IC50 (Plasmodium falciparum [12]): 234 nM
IC50 (Plasmodium falciparum [13]): 208 nM
IC50 (Plasmodium falciparum [14]): 73.9 nM
IC50 (Plasmodium falciparum [15]): 182 nM
IC50 (Plasmodium falciparum [16]): 227 nM
IC50 (Plasmodium falciparum [17]): 208 nM
IC50 (Plasmodium falciparum [18]): 91.6 nM
IC50 (Plasmodium falciparum [19]): 22 nM
IC50 (Plasmodium falciparum [20]): 164 nM
IC50 (Plasmodium falciparum [21]): 78.2 nM
IC50 (Plasmodium falciparum [22]): 54.1 nM
IC50 (Plasmodium falciparum [23]): 270 nM
IC50 (Plasmodium falciparum [24]): 227 nM
IC50 (Plasmodium falciparum [25]): 210 nM
IC50 (Plasmodium falciparum [26]): 42.4 nM
IC50 (Plasmodium falciparum [27]): 333 nM
IC90 (Plasmodium falciparum [28]): 157 nM
IC50 (Plasmodium falciparum [29]): 20 nM
IC50 (Plasmodium falciparum [30]): 45 nM
IC90 (Plasmodium falciparum [30]): 125 nM

C[C@H]1[C@@H](O)O[C@@H]2O[C@@]3(C)CC[C@H]4[C@H](C)CC[C@@H]1[C@@]24OO3 [ARTENIMOL]
IC50 (Plasmodium falciparum [1]): 1 nM
